Assays:
[1] = cited from earlier work
[2] = Concentration of calcium in blood of osteoporosis-induced mice (QuantiChrom calcium assay kit); format: in vivo; settings: ovariectomized ICR mice; PTH 20 μg/kg daily for 3 months, fusion peptide 80 pg/kg weekly for 6 months
Protocol: Six week-old ICR mice were anesthetized by intramuscular injection using a mixture of 10 mg/kg of xylazine (Rompun®, Bayer, Korea) and 100 mg/kg of ketamine (Ketalar®, Yuhan Co., Ltd., Korea) and then the ovaries present below the bilateral kidneys were entirely removed carefully. Suturing was performed by an ordinary method and 3 mg/kg of gentamicin (Gentamycin®, JW Pharmaceutical Corporation, Korea) was intramuscularly injected.
Three months after the ovariectomy, whether or not bone loss occurred was checked. […] The change in bone density was evaluated, as compared with a group not treated with osteoporosis.
The concentration of calcium in blood was determined using a QuantiChrom™ calcium assay kit (Bioassay Systems, Hayward, Calif.). […] One of the effects of PTH on the human body is to increase the concentration of calcium in blood by affecting bones and kidneys. Therefore, long-term administration of PTH causes side effects that induce hypercalcemia.

SMILES	half-life ([1]; subcutaneous injection once a day) [h]	side effects ([1]; upon use for a long time of 2 years or longer)	concentration of calcium in blood [2]
CC[C@H](C)[C@H](NC(=O)[C@H](CCC(=O)O)NC(=O)[C@H](CO)NC(=O)[C@@H](NC(=O)[C@@H](N)CO)C(C)C)C(=O)N[C@@H](CCC(N)=O)C(=O)N[C@@H](CC(C)C)C(=O)N[C@@H](CCSC)C(=O)N[C@@H](Cc1cnc[nH]1)C(=O)N[C@@H](CC(N)=O)C(=O)N[C@@H](CC(C)C)C(=O)NCC(=O)N[C@@H](CCCCN)C(=O)N[C@@H](Cc1cnc[nH]1)C(=O)N[C@@H](CC(C)C)C(=O)N[C@@H](CC(N)=O)C(=O)N[C@@H](CO)C(=O)N[C@@H](CCSC)C(=O)N[C@@H](CCC(=O)O)C(=O)N[C@@H](CCCN=C(N)N)C(=O)N[C@H](C(=O)N[C@@H](CCC(=O)O)C(=O)N[C@@H](Cc1c[nH]c2ccccc12)C(=O)N[C@@H](CC(C)C)C(=O)N[C@@H](CCCN=C(N)N)C(=O)N[C@@H](CCCCN)C(=O)N[C@@H](CCCCN)C(=O)N[C@@H](CC(C)C)C(=O)N[C@@H](CCC(N)=O)C(=O)N[C@@H](CC(=O)O)C(=O)N[C@H](C(=O)N[C@@H](Cc1cnc[nH]1)C(=O)N[C@@H](CC(N)=O)C(=O)N[C@@H](Cc1ccccc1)C(=O)O)C(C)C)C(C)C [Forteo]	≤ 1	hypercalcemia and even a high incidence of osteosarcoma	
CC[C@H](C)[C@H](NC(=O)[C@H](CCC(=O)O)NC(=O)[C@H](CO)NC(=O)[C@@H](NC(=O)[C@@H](N)CO)C(C)C)C(=O)N[C@@H](CCC(N)=O)C(=O)N[C@@H](CC(C)C)C(=O)N[C@@H](CCSC)C(=O)N[C@@H](Cc1cnc[nH]1)C(=O)N[C@@H](CC(N)=O)C(=O)N[C@@H](CC(C)C)C(=O)NCC(=O)N[C@@H](CCCCN)C(=O)N[C@@H](Cc1cnc[nH]1)C(=O)N[C@@H](CC(C)C)C(=O)N[C@@H](CC(N)=O)C(=O)N[C@@H](CO)C(=O)N[C@@H](CCSC)C(=O)N[C@@H](CCC(=O)O)C(=O)N[C@@H](CCCN=C(N)N)C(=O)N[C@H](C(=O)N[C@@H](CCC(=O)O)C(=O)N[C@@H](Cc1c[nH]c2ccccc12)C(=O)N[C@@H](CC(C)C)C(=O)N[C@@H](CCCN=C(N)N)C(=O)N[C@@H](CCCCN)C(=O)N[C@@H](CCCCN)C(=O)N[C@@H](CC(C)C)C(=O)N[C@@H](CCC(N)=O)C(=O)N[C@@H](CC(=O)O)C(=O)N[C@H](C(=O)N[C@@H](Cc1cnc[nH]1)C(=O)N[C@@H](CC(N)=O)C(=O)N[C@@H](Cc1ccccc1)C(=O)O)C(C)C)C(C)C [PTH, reference compound]			increased the concentration of calcium at one month
